We go through 3 molecules from US20020128214A1, “C-glucosyl ether lipids” (priority 2000, published 2002).

Data set [1] relates to panel of epithelial cancer cell lines. Description: Cancer cell proliferation study, whole panel (FIGS. 1-9). In kind it is cell-based. As to conditions: nine cancer cell lines, 48 hours, 10% FBS-supplemented medium. Here is the method: (§1) In this study, the anti-proliferative effects of each of four glucosyl ether lipid compounds were assessed on a panel of epithelial cancer cell lines. Two Cglucosyl ether lipids in accordance with the invention (compounds 4 and 17) were evaluated. In addition, a 2′-deoxy C-glucosyl ether lipid (compound 2) and a 2′-amino-2′-deoxy O-glucosyl ether lipid (compound 3), were evaluated. Thirty mM stock concentration of each of the four compounds were prepared in ethanol.
(§2) The experimental procedure used is detailed in Lu, X. and Arthur, G., Cancer Res., 52:2806-2812 (1992), the pertinent parts of which are incorporated by reference. Briefly, the epithelial cancer cell lines, namely SK-N-MC and SK-N-SH (neuroblastoma); DU145 (prostate); A498 (kidney); MDA-MB-468, MDA-MB-231, HS578t, MCF-7 and BT549 (breast), were subcultured into 24-well plates and allowed to grow to exponential phase. The medium was changed and replaced with one containing the glucosyl ether lipid compounds ([…]) in 10% FBS-supplemented medium. The cell numbers in representative wells were determined at the time of addition of the compounds. After 48 hours, the cells were detached with trypsin and the numbers were determined with a Coulter Counter. The increase in cell numbers were expressed as a percentage relative to those in wells without any drug (control).

The subject of another data set is MCF-7 (breast). Description: Anti-proliferation, cell count after 48 h (Coulter Counter), MCF-7. In kind it is cell-based. As to conditions: treated 48 hours, extrapolated from FIGS. 1-9. Here is the method:
as §1, §2
(§3) See Erukulla, et al., J. Med. Chem., 39:1545-1548 (1996), the pertinent portions of which are incorporated herein by reference. Table 1 summarizes the comparative test results for 17, 3, 4, and the 2-deoxy analog of 4, (3S)-3-O-methyl-4-O-hexadecyl-2′-deoxy-β-D-glucopyranosylbutane (compound 2), which had been described in our earlier paper (Yang et al., Org. Lett., 1:2149-2151 (1999)). The method utilized was the same as that described in Example 2 above, and the Gl50 values were extrapolated from the results shown in FIGS. 1-9. In all nine examples, the close similarity in antiproliferative activity is striking.

Another data set concerns HS578T (breast). Description: Anti-proliferation, cell count after 48 h (Coulter Counter), HS578T. As to conditions: treated 48 hours, extrapolated from FIGS. 1-9. In kind it is cell-based. How it is done: as §1, §2, §3
The subject of the next data set is A498 (kidney). Description: Anti-proliferation, cell count after 48 h (Coulter Counter), A498. The following applies: treated 48 hours, extrapolated from FIGS. 1-9. In kind it is cell-based. How it is done: as §1, §2, §3
The subject of another data set is DU145 (prostate). Description: Anti-proliferation, cell count after 48 h (Coulter Counter), DU145. Format: cell-based. As to conditions: treated 48 hours, extrapolated from FIGS. 1-9. How it is done: as §1, §2, §3
For data set [2] the following is noted: comparison with compound 1; cited from earlier work.
In the next data set the test system is MDA-MB-231 (breast). Description: Anti-proliferation, cell count after 48 h (Coulter Counter), MDA-MB-231. In kind it is cell-based. As to conditions: treated 48 hours, extrapolated from FIGS. 1-9. How it is done:
as §1, §2, §3

The test system of the next data set is MDA-MB-468 (breast). Description: Anti-proliferation, cell count after 48 h (Coulter Counter), MDA-MB-468. Format: cell-based. The following applies: treated 48 hours, extrapolated from FIGS. 1-9. How it is done: as §1, §2, §3
In the next data set the test system is SK-N-MC (neuroblastoma). Description: Anti-proliferation, cell count after 48 h (Coulter Counter), SK-N-MC. Format: cell-based. The following applies: neuronal, treated 48 hours, extrapolated from FIGS. 1-9. How it is done:
as §1, §2, §3

The subject of a further data set is BT549 (breast). Description: Anti-proliferation, cell count after 48 h (Coulter Counter), BT549. In kind it is cell-based. The following applies: treated 48 hours, extrapolated from FIGS. 1-9. How it is done:
as §1, §2, §3

The subject of the next data set is SK-N-SH (neuroblastoma). Description: Anti-proliferation, cell count after 48 h (Coulter Counter), SK-N-SH. As to conditions: neuronal, treated 48 hours, extrapolated from FIGS. 1-9. In kind it is cell-based. How it is done: as §1, §2, §3
The next data set can be described thus: Storage stability. Format: physicochemical. As to conditions: stored at 0° C. How it is done:
Deprotection and reduction of alkene 15 using H2 and 10% Pd/C afforded β-C-glycoside 16 in 85% yield. Of the several methods attempted for cleavage of the silyl group (e.g., Bu4NF, formic acid, acidic ionic exchange resin, and BF3, Et2O conditions), only BF3,Et2O in CH3CN gave a clean reaction (see King, et al., Tetrahedron Lett., 36:4563 (1995), the pertinent portions of which are incorporated herein by reference). The N-acetyl group was cleaved by using 2 N KOH/EtOH at reflux at 120° C. to afford the final product 4. [drawing 8]

A word on the GI50: it is the concentration giving 50% growth inhibition. Consider `CCCCCCCCCCCCCCCCOC[C@H](CC[C@H]1C[C@@H](O)[C@H](O)[C@@H](CO)O1)OC` [Compound 2, (3S)-3-O-methyl-4-O-hexadecyl-2′-deoxy-β-D-glucopyranosylbutane, reference compound], for which the “anti-proliferative efficacy (increase in cell numbers relative to control)” value in data set [1] was “generally less efficacious than the other two glycoside ether lipids evaluated”. Moreover, the GI50 in the data set with MCF-7 (breast) was more than 15 µM; in the data set on HS578T (breast), more than 15 µM; with A498 (kidney), more than 15 µM; in the data set on DU145 (prostate), more than 15 µM; in the data set with MDA-MB-231 (breast), more than 15 µM; with MDA-MB-468 (breast) it was 11.4 µM. Moreover, the GI50 in the data set with SK-N-MC (neuroblastoma), in the data set on BT549 (breast) and with SK-N-SH (neuroblastoma) was more than 15 µM each time. Further, in [2], the “antiproliferative activity of C-glycoside relative to O-glycoside compound 1” value is given as “several fold weaker activity”.
Take `CCCCCCCCCCCCCCCCOC[C@H](CC[C@@H]1O[C@H](CO)[C@@H](O)[C@H](O)[C@H]1N)OC` [Compound 4, (3S)-3-O-methyl-4-O-hexadecyl-2′-amino-2′-deoxy-β-Dlucopyranosylbutane]: the GI50 in the data set with MCF-7 (breast) is 8.1 µM; in the data set on HS578T (breast) it was 5.1 µM; in the data set with A498 (kidney), 8.5 µM; with DU145 (prostate) it was 7.9 µM; with MDA-MB-231 (breast), 9.1 µM; in the data set on MDA-MB-468 (breast), 9 µM. The figures for the 50% growth inhibitory concentration (GI50) in the data set with SK-N-MC (neuroblastoma), in the data set with BT549 (breast) and with SK-N-SH (neuroblastoma) were 4.1 µM, 8.9 µM and 4.1 µM, respectively. In “Storage stability”, the “storage time without decomposition” value is given as “more than one month without any decomposition”.
With `CCCCCCCCCCCCCCCCOC[C@H](CC[C@@H]1O[C@H](CO)[C@@H](O)[C@H](O)[C@H]1NC(C)=O)OC` [Compound 17, (3S)-3-O-Methyl-4-O-hexadecyl 2′-acetamido-2′-deoxy-β-D-glucopyranosylbutane], the “anti-proliferative efficacy (increase in cell numbers relative to control)” value in data set [1] is “generally less efficacious than the other two glycoside ether lipids evaluated”. Also, the GI50 is 25 µM in the data set on MCF-7 (breast); 21 µM with HS578T (breast); more than 15 µM with A498 (kidney); more than 15 µM with DU145 (prostate); 40 µM in the data set on MDA-MB-231 (breast); 34.4 µM with MDA-MB-468 (breast). Also, the GI50 was more than 15 µM in the data set on SK-N-MC (neuroblastoma), 28.5 µM in the data set on BT549 (breast) and more than 15 µM with SK-N-SH (neuroblastoma).
